Test system: 616215-338-R-J1-PDC complex spheroid viability
Assay: Anticancer human tumor 616215-338-R-J1-PDC patient-derived colon adenocarcinoma cell line growth inhibition [RAS]
Settings: for IC50: curve of first compound; for viability, T/C: stronger effect = lower value
Outline: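 Tumour cells grown as complex spheroids with HUVEC endothelial cells and mesenchymal stem cells, treated with RAS pathway inhibitor combinations. Each agent spans half-log steps from near clinical Cmax, or 10 microM where Cmax is unknown.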
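Note: spheroids exposed to agents for seven days before viability readout.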
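Throughout, for viability, T/C: 100% = DMSO vehicle control viability.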

## C=CC(=O)N1CCN(c2nc(OCC3CCCN3C)nc3c(F)c(-c4nc(N)cc(C)c4C(F)(F)F)c(Cl)cc23)C(C)C1 (configuration not stated) + CCn1c(-c2cccnc2C(C)OC)c2c3cc(ccc31)N1CCOC(CC(NC(=O)C(C(C)C)N(C)C(=O)C3(F)CCN(C(=O)C#CC(C)(C)N(C)C)CC3)C(=O)N3CCCC(N3)C(=O)OCC(C)(C)C2)C1
Second compound 0.000949 µM
  IC50: > 1000 nM
Second compound 0.003 µM
  IC50: > 1000 nM
Second compound 0.00949 µM
  IC50: > 1000 nM
Second compound 0.03 µM
  IC50: > 1000 nM
Second compound 0.0949 µM
  IC50: > 1000 nM
Second compound 0.3 µM
  IC50: > 1000 nM
Second compound 0.000949 µM, first compound 0.00316 µM
  viability, T/C: 106%
Second compound 0.000949 µM, first compound 0.01 µM
  viability, T/C: 100%
Second compound 0.000949 µM, first compound 0.0316 µM
  viability, T/C: 106%
Second compound 0.000949 µM, first compound 0.1 µM
  viability, T/C: 108%
Second compound 0.000949 µM, first compound 0.316 µM
  viability, T/C: 115%
Second compound 0.000949 µM, first compound 1 µM
  viability, T/C: 103%
Second compound 0.003 µM, first compound 0.00316 µM
  viability, T/C: 103%
Second compound 0.003 µM, first compound 0.01 µM
  viability, T/C: 114%
Second compound 0.003 µM, first compound 0.0316 µM
  viability, T/C: 100%
Second compound 0.003 µM, first compound 0.1 µM
  viability, T/C: 111%
Second compound 0.003 µM, first compound 0.316 µM
  viability, T/C: 116%
Second compound 0.003 µM, first compound 1 µM
  viability, T/C: 101%
Second compound 0.00949 µM, first compound 0.00316 µM
  viability, T/C: 106%
Second compound 0.00949 µM, first compound 0.01 µM
  viability, T/C: 101%
Second compound 0.00949 µM, first compound 0.0316 µM
  viability, T/C: 106%
Second compound 0.00949 µM, first compound 0.1 µM
  viability, T/C: 104%
Second compound 0.00949 µM, first compound 0.316 µM
  viability, T/C: 106%
Second compound 0.00949 µM, first compound 1 µM
  viability, T/C: 100%
Second compound 0.03 µM, first compound 0.00316 µM
  viability, T/C: 118%
Second compound 0.03 µM, first compound 0.01 µM
  viability, T/C: 110%
Second compound 0.03 µM, first compound 0.0316 µM
  viability, T/C: 105%
Second compound 0.03 µM, first compound 0.1 µM
  viability, T/C: 115%
Second compound 0.03 µM, first compound 0.316 µM
  viability, T/C: 101%
Second compound 0.03 µM, first compound 1 µM
  viability, T/C: 98.6%
Second compound 0.0949 µM, first compound 0.00316 µM
  viability, T/C: 135%
Second compound 0.0949 µM, first compound 0.01 µM
  viability, T/C: 113%
Second compound 0.0949 µM, first compound 0.0316 µM
  viability, T/C: 109%
Second compound 0.0949 µM, first compound 0.1 µM
  viability, T/C: 127%
Second compound 0.0949 µM, first compound 0.316 µM
  viability, T/C: 126%
Second compound 0.0949 µM, first compound 1 µM
  viability, T/C: 116%
Second compound 0.3 µM, first compound 0.00316 µM
  viability, T/C: 117%
Second compound 0.3 µM, first compound 0.01 µM
  viability, T/C: 108%
Second compound 0.3 µM, first compound 0.0316 µM
  viability, T/C: 107%
Second compound 0.3 µM, first compound 0.1 µM
  viability, T/C: 112%
Second compound 0.3 µM, first compound 0.316 µM
  viability, T/C: 113%
Second compound 0.3 µM, first compound 1 µM
  viability, T/C: 107%

Reference: PubChem BioAssay AID2060898 (Molecular Pharmacology Branch, DTP, NCI, 2025)
